Measured values taken from patent US20250171518A1, “METHODS FOR PREPARING CELLS FOR ADOPTIVE T CELL THERAPY” (City of Hope, priority 2015, published 2025).

Test system: CD19 CAR T cells from bulk T cells (PBMC), TCM, naïve/memory T cells
Test: Generation of memory CD19 CAR T cells from different T cell subsets
Type: cell-based, human
Source text: FIGS. 6A-6B: Akt inhibition promotes the generation of memory CD19 CAR T cells from different T cell subsets. […] Resultant CD19 CAR T cells were stained with biotinylated Erbitux (cetuximab), followed by streptavidin-PE for CAR detection and antibodies against CD62L. Percentages of CAR+CD62L+ cells are depicted on the basis of the gating of isotype-stained cells. (B) Percentages of CD62L+CD28+ T cells after gating on CAR+CD8+ from six lines of CD19 CAR T cells derived from two different donors are presented.
Resultant CD19CAR T cells were stained with biotinylated Erbitux (cetuximab), followed by streptavidin-PE for CAR detection and antibodies against CD62L. Cells expressing CD62 represent TCM cells or TSCM cells.
Samples from two donors were used to prepare PBMC, TCM, and TN/TCM/TSCM cell populations.

O=c1[nH]c2ccccc2n1C1CCN(Cc2ccc(-c3nc4cc5[nH]cnc5cc4nc3-c3ccccc3)cc2)CC1 [Akt inhibitor VIII, 1,3-dihydro-1-[1-[[4-(6-phenyl-1H-imidazo[4,5-g]quinoxalin-7-yl)phenyl]methyl]-4-piperidinyl]-2H-benzimidazol-2-one]
percentage of CD62L+ expressing CAR T cells (1 μM Akt inhibitor VIII, 17-21 days, bulk T cells, TCM cells or naïve/memory T cells, FIG. 6A): increases the percentage of CD62L+ expressing CAR T cells | number of CD62L+/CD28+/CAR+ T cells (six cell populations from two donors, 17-21 days with or without Akt inhibitor VIII, FIG. 6B): increased the number of CD62L+/CD28+/CAR+ T cells
